Measurements taken from patent publication US20210207095A1, “METHODS OF ACTIVATING CELLS VIA PTP 1B INHIBITION” (Monash University, priority 2018, published 2021).

Columns and labels:
[1] = Body weight, food intake and body composition of tumour-bearing mice treated with PTP1B inhibitor; format: in vivo
Experimental: (§1) FIG. 20. PTP1B-specific inhibitor MSI-1436 (Trodusquemine) repressed tumor growth. 1×10^6 AT-3 OVA breast cancer cells suspended in 20 μl 1×DPBS were transplanted into mammary fat pads of T cell-specific PTP1B-deficient (Lck-Cre; Ptpn1^fl/fl; n=16) and PTP1B wild-type (Ptpn1^fl/fl; n=16) female mice. 17 days after the tumor cell transplantation, MSI-1436 was applied to recipient mice through intraperitoneal injection in 100 μl 0.9% (v/v) saline with the concentration of 10 mg per kilogram body weight. 8 out 16 mice from both Ptpn1^fl/fl and Lck-Cre; Ptpn1^fl/fl recipients were treated every three days with MSI-1436 before the start of the dark cycle. […] This was accompanied by a reduction in food intake and adiposity but no changes in lean mass (data not shown). Representative results (means±SEM) for the indicated numbers of mice and experiments are shown. Significances were determined using 2-tailed Mann-Whitney U Test.

[2] = system: AT-3 OVA breast cancer cells; experiment: Syngeneic AT-3 OVA breast cancer tumour growth in mice treated with PTP1B inhibitor; format: in vivo; details: for Tumor growth: AT-3 OVA cells in mammary fat pads, Ptpn1fl/fl and Lck-Cre;Ptpn1fl/fl female mice, 10 mg/kg i.p. every three days from day 17, vs untreated Ptpn1fl/fl, p<0.0001, 2-way ANOVA
Experimental: as §1
Breast cancer cells were transplanted into mammary fat pads of mice that were “globally” ptp1b-deficient (Ptpn1^−/−) or T-cell specific ptp1b-deficient (Lck-Cre; Ptpn1^fl/fl). Tumour growth was monitored for 28 days after transplantation. […] (FIG. 18A). […] (FIG. 19A).

Compound: CC(C)[C@@H](CC[C@@H](C)[C@H]1CC[C@H]2[C@@H]3[C@H](O)C[C@H]4C[C@@H](NCCCNCCCCNCCCN)CC[C@]4(C)[C@H]3CC[C@]12C)OS(=O)(=O)O [MSI-1436, Trodusquemine]
- Body weight ([1]; Lck-Cre;Ptpn1fl/fl or Ptpn1fl/fl mice, 10 mg/kg i.p. every three days, p<0.0001): significant weight loss
- Adiposity ([1]; treated mice, data not shown): reduction
- Food intake ([1]; treated mice, data not shown): reduction
- Lean mass ([1]; treated mice, data not shown): no changes
- Tumor growth ([2]; 10 mg/kg): significantly suppressed
- Tumor growth ([2]; listed as MSI1436, 10 mg/kg): repressed the growth
- Tumour burden in mice lacking PTP1B in T cells ([2]; Lck-Cre;Ptpn1fl/fl mice, treatment once every 3 days): did not lead to further reductions in tumour burden
- Tumor burden ([2]; MSI-1436-treated Ptpn1fl/fl mice vs non-treated counterparts, 10 mg/kg i.p. every three days, p<0.0001): significant reduction of tumor burden
